In series [1] the test system is HepG2. The series can be described thus: MTT cytotoxicity assay, substances alone, HepG2. Format: cell-based, human. Here is the method: (§1) Suitable vehicle controls were also included.
(§2) The effect of the treatments on cell viability was measured by the MTT assay as previously described. A higher than 30% reduction of cell viability was considered as a significant cytotoxic effect.
For orientation: Formazan colour is commonly taken as a measure of viable cells.

Series [2] relates to Mz-ChA-1. The series can be described thus: MTT cytotoxicity assay, substances alone, Mz-ChA-1. Format: cell-based, human. Conditions: for IC50: Homo sapiens, substance alone, 4 h exposure + 72 h recovery. Here is the method:
as §1, §2

The subject of series [3] is Bx-PC3. The series is described as follows: MTT cytotoxicity assay, substances alone, Bx-PC3. In kind it is cell-based, human. Conditions: for IC50: Homo sapiens, BXPC-3, substance alone, 4 h exposure + 72 h recovery. The method, then:
as §1, §2

Series [4] concerns noncancerous H69 cholangiocytes. The series is described as follows: MTT cytotoxicity assay (tolerability), substances alone, H69. Format: cell-based, human. Conditions: for higher cytotoxicity in normal H69 cells than in cancerous Mz-ChA-1 cholangiocytes (IC50 comparison): H69 vs Mz-ChA-1; for CC50: Homo sapiens, H69 noncancerous cholangiocytes, substance alone, 4 h exposure + 72 h recovery, read-out: IC50 (CL). The method, then: as §1, §2

Series [5] deals with HepG2. The series is described as follows: Combination assay with sorafenib (MTT), HepG2.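 For increase of sorafenib cytotoxicity in combination: percent increase of sorafenib cell viability inhibition versus sorafenib alone.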 In kind it is cell-based, human. Particulars: for increase of sorafenib cytotoxicity in combination: verapamil/MK571 1 µg/mL or sesquiterpenes 10 µg/mL. Here is the method:
as §1
(§3) The type of interaction (synergistic, additive, or antagonistic) among sorafenib and test substances or positive controls was evaluated by measuring the reversal ratio value (RR), combination index (CI), and isobolographic analysis (IB), as previously described.

The subject of series [6] is Mz-ChA-1. The series is described as follows: Combination assay with sorafenib (MTT), Mz-ChA-1.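 For increase of sorafenib cytotoxicity in combination: percent increase of sorafenib cell viability inhibition versus sorafenib alone.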 Format: cell-based, human. Here is the method:
as §1, §3

Series [7] relates to Bx-PC3. The series can be described thus: Combination assay with sorafenib (MTT), Bx-PC3.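 For increase of sorafenib cytotoxicity in combination: percent increase of sorafenib cell viability inhibition versus sorafenib alone.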 In kind it is cell-based, human. Here is the method: as §1, §3
In series [8] the test system is noncancerous H69 cholangiocytes. The series is described as follows: Combination assay with sorafenib (MTT), tolerability in H69. Format: cell-based, human. Particulars: combination with 1 µg/mL and 10 µg/mL sorafenib, verapamil/MK571 1 µg/mL. Here is the method: as §1, §3
Series [9] concerns MRP2. The series can be described thus: Immunofluorescence analysis in Bx-PC3 cells, MRP2. Format: cell-based, human. Conditions: substance alone. Here is the method:
as §1
(§4) The analysis was performed according to previously published methods. Confluent cells were seeded in 24-well plates (2 × 10^4 cells/well), allowed to adhere overnight, then treated as described above. After treatment, cells were fixed in pure methanol and washed with 4% bovine serum albumin (BSA) and PBS + Tween 20 (PBS-T) for 1 h. […] The expression and localization of Pgp, MRP1, and MRP2 pumps into cells were analyzed by using a Cytation 1 Cell Imaging Multimode Reader (Biotech, USA).

For the next series, the system named is phospho(Tyr705)-STAT3. The series is described as follows: Western blotting of STAT3 phosphorylation in Bx-PC3 cells. In kind it is cell-based, human. Conditions: for increase of STAT3 phosphorylation at tyrosine 705: substance alone, sorafenib and sesquiterpenes 10 μg/mL, verapamil/MK571 1 μg/mL, normalized to total STAT3. Here is the method:
as §1
Confluent cells were seeded in 6-well plates (5 × 10^5 cells/well), treated as described above, then harvested by centrifugation and washed in PBS. After lysis with a suitable buffer, the Western blotting analysis was carried out, according to previously published methods. […] The levels of phospho(Tyr705)-STAT3 were normalized against total STAT3 ones.

In another series the test system is Bx-PC3 cells. The series is described as follows: Wound healing assay (cell migration). In kind it is cell-based, human. The method, then: To evaluate the effect of caryophyllane sesquiterpenes, both alone and in combination with sorafenib, on the cell migration rate, the wound healing assay was performed. Bx-PC3 cells were seeded in 24-well plate at a density of 2.5 × 10^5 cells/well. After 24 h, the wound was created by scratching the well bottom with a 100 μL pipette tip, then the cells were treated under the scheduled conditions and images were captured at 0, 4, and 72 h using a Cytation 1 Cell Imaging Multi-Mode Reader. […] Results were expressed as wound area percentage with respect to that of the same well at zero time. The positive controls were also included.

Series [10] relates to MRP1. The series is described as follows: RT-qPCR gene expression in Bx-PC3 cells, MRP1. In kind it is cell-based, human. Conditions: substance alone.
Text: as §1

The next series deals with Pgp. The series can be described thus: Immunofluorescence analysis in Bx-PC3 cells, Pgp. In kind it is cell-based, human. Particulars: substance alone, sorafenib and sesquiterpenes 10 µg/mL, verapamil 1 µg/mL. Here is the method:
as §1, §4

The subject of series [11] is MRP1. The series can be described thus: Immunofluorescence analysis in Bx-PC3 cells, MRP1. Format: cell-based, human. Conditions: substance alone, 10 µg/mL. The method, then: as §1, §4
The next series concerns MDR1. The series is described as follows: RT-qPCR gene expression in Bx-PC3 cells, MDR1. Particulars: substance alone, 4 h exposure + 72 h recovery. (In general: Real-time PCR tracks product formation cycle by cycle.)
In series [12] the test system is MRP2. The series is described as follows: RT-qPCR gene expression in Bx-PC3 cells, MRP2. Particulars: substance alone.
Procedure: (§5) Confluent cells were treated with the test substances, both alone or in combination with the anticancer drug, for 4 h, then washed and incubated for a further 72 h (Figure 1), according to previously published protocols [20]. […] Suitable vehicle controls were also included.
(§6) The results of mRNA abundance for the targeted genes in each sample were normalized on the basis of GAPDH (Bio-Rad, Hercules, CA, USA) mRNA. Data are expressed as 2^−ΔCt, calculated using the CFX Manager software (Bio-Rad).

Molecules are shown by their SMILES. Counter-ions that a name gives are not always drawn.

Procedure for MDR1: as §5, §6

With `CN(C)C(=O)CCSC(SCCC(=O)O)c1cccc(/C=C/c2ccc3ccc(Cl)cc3n2)c1` (stereo not drawn) [MK571, reference compound], the results for the “IC50 higher than that of sorafenib” value in the series on HepG2 [1] (HepG2), in the series on Mz-ChA-1 [2] (Mz-ChA-1) and in the series on Bx-PC3 [3] were “comparable”, 1.2 fold and 2.5 fold, respectively. The “inhibition of cell viability” value is given as 50% with HepG2 [1] (HepG2, 50 µg/mL); “approximately 15%” in the series on Mz-ChA-1 [2] (Mz-ChA-1, 50 µg/mL); roughly 90% with Mz-ChA-1 [2] (Mz-ChA-1, 250 µg/mL); roughly 33% with Bx-PC3 [3] (50 µg/mL); roughly 90% in the series on Bx-PC3 [3] (250 µg/mL). Also, the 50% inhibitory concentration (IC50) in the series with Mz-ChA-1 [2] (Mz-ChA-1) amounted to 94.6 µg/mL; in the series on Bx-PC3 [3], 78.5 µg/mL. Also, the “higher cytotoxicity in normal H69 cells than in cancerous Mz-ChA-1 cholangiocytes (IC50 comparison)” value in series [4] was roughly 2.9 fold. Besides, the CC50 in [4] stood at 32.6 µg/mL. The results for the “reduction of sorafenib IC50 in the presence of the substance” value in the series on HepG2 [5], in the series on Mz-ChA-1 [6] and with Bx-PC3 [7] were roughly 6 fold, 1.7 fold and roughly 3.9 fold, respectively. The “increase of sorafenib cytotoxicity in combination” value is listed as roughly 23% in the series with HepG2 [5] (sorafenib 1 µg/mL); roughly 40% in the series on HepG2 [5] (sorafenib 10 µg/mL); 3% in the series with Mz-ChA-1 [6] (sorafenib 1 µg/mL, verapamil/MK571 1 µg/mL); 20% with Mz-ChA-1 [6] (sorafenib 10 µg/mL, verapamil/MK571 1 µg/mL or sesquiterpenes 10 µg/mL); roughly 10% in the series with Bx-PC3 [7] (sorafenib 1 µg/mL, verapamil/MK571 1 µg/mL or sesquiterpenes 10 µg/mL); roughly 47% with Bx-PC3 [7] (sorafenib 10 µg/mL, verapamil/MK571 1 µg/mL). The “reduction of cell viability with respect to sorafenib alone” value in series [8] is roughly 15%. Further, the “effect on MRP2 transporter expression (immunofluorescence)” value in the series on MRP2 [9] was “significantly lowered”. Further, the “increase of STAT3 phosphorylation at tyrosine 705” value in the series with phospho(Tyr705)-STAT3 came out at 1.5 fold. In addition, the “reduction of phospho(Tyr705)-STAT3 with respect to sorafenib” value with phospho(Tyr705)-STAT3 (substance in combination with sorafenib 10 μg/mL) turned out to be 3.7 fold. Also, in the series with Bx-PC3 cells (substance alone, sesquiterpenes 10 µg/mL, verapamil/MK571 1 µg/mL), the “wound area / cell migration after 72 h” value is on record as “almost complete closure of wound area”. Also, the “increase of wound area” value in the series with Bx-PC3 cells (substance in combination with sorafenib 10 µg/mL, reference and time not stated) is “approximately 3.7 fold”.

`CNC(=O)c1cc(Oc2ccc(NC(=O)Nc3ccc(Cl)c(C(F)(F)F)c3)cc2)ccn1` [Sorafenib, sorafenib tosylate]: the “inhibition of cell viability” value is listed as “approximately 10%” in the series on HepG2 [1] (HepG2, 10 µg/mL); 95% with HepG2 [1] (HepG2, 500 µg/mL); “about 30%” in the series with Mz-ChA-1 [2] (Mz-ChA-1, 50 µg/mL); “about 90%” with Mz-ChA-1 [2] (Mz-ChA-1, 250 µg/mL); 70% in the series with Bx-PC3 [3] (50 µg/mL). For the same compound, the “IC50 higher with respect to Bx-PC3 cells” value is given as “approximately 1.5 fold” in the series with HepG2 [1] (HepG2 vs Bx-PC3) and roughly 2.4 fold in the series on Mz-ChA-1 [2] (Mz-ChA-1 vs Bx-PC3). Moreover, the 50% inhibitory concentration (IC50) in the series on Mz-ChA-1 [2] (Mz-ChA-1) is 76.1 µg/mL; in the series with Bx-PC3 [3], 31 µg/mL. Moreover, in the series with Bx-PC3 [3] (concentrations higher than 50 µg/mL), the “cell viability at the higher tested concentrations” value is recorded as “almost completely inhibited”. Also, the “higher cytotoxicity in normal H69 cells than in cancerous Mz-ChA-1 cholangiocytes (IC50 comparison)” value in series [4] is listed as “approximately 1.5 fold”. In addition, the CC50 in series [4] worked out at 50.3 µg/mL. Moreover, the “decrease of MRP1 gene expression” value in the series on MRP1 [10] was roughly 2 fold. Further, the “effect on Pgp expression (immunofluorescence)” value in the series on Pgp is reported as “slight increase”. In the series on MRP1 [11], the “lowering of MRP1 expression compared to control (immunofluorescence)” value turned out to be 1.2 fold. The “effect on MRP2 transporter expression (immunofluorescence)” value in the series with MRP2 [9] is reported as “significantly lowered”. Also, in the series on phospho(Tyr705)-STAT3, the “increase of STAT3 phosphorylation at tyrosine 705” value was determined as 4.6 fold. In addition, in the series with Bx-PC3 cells (sorafenib 10 µg/mL alone), the “change of wound area after 4 h” value is “slight reduction”. Moreover, the “increase of wound area at 72 h” value in the series on Bx-PC3 cells (sorafenib 10 µg/mL alone) was found to be 1.2 fold. Moreover, in the series on MDR1, the “increase of MDR1 gene expression with respect to control” value came to 3.6 fold. Further, in the series on MRP2 [12], the “decrease of MRP2 gene expression” value is reported as roughly 2 fold.

In general, IC50 refers to the concentration that gives 50% inhibition.

Values taken from publication PMC9231089, “Sorafenib Chemosensitization by Caryophyllane Sesquiterpenes in Liver, Biliary, and Pancreatic Cancer Cells: The Role of STAT3/ABC Transporter Axis” (Pharmaceutics, 2022).
